Results reported in PubChem BioAssay AID2060611 (Molecular Pharmacology Branch, DTP, NCI, 2025).
“And” between values parts separate entries of the source, which are not always exact repeats. Identical values can stand only once. Values belong to the molecule of their own block, whether it stands above or below them.

Test system: 628569-122-R-J1-PDC complex spheroid viability
Assay: Anticancer human tumor 628569-122-R-J1-PDC patient-derived head and neck squamous carcinoma cell line growth inhibition [CLK]
Conditions: for viability, T/C: stronger effect = lower value
Procedure, shortened: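 Patient-derived tumor cells grown as complex spheroids with HUVEC endothelial cells and mesenchymal stem cells, treated with drug combinations. Concentrations descend in half-log steps from near clinical Cmax, or from 10 microM if Cmax unknown.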

[1] = curve of first compound, second compound 0.0316 µM
[2] = curve of first compound, second compound 0.1 µM
[3] = curve of first compound, second compound 0.316 µM
[4] = curve of first compound, second compound 1 µM
[5] = curve of first compound, second compound 3.16 µM
[6] = curve of first compound, second compound 10 µM
[7] = second compound 0.0316 µM, first compound 0.0316 µM
[8] = second compound 0.0316 µM, first compound 0.1 µM
[9] = second compound 0.0316 µM, first compound 0.316 µM
[10] = second compound 0.0316 µM, first compound 1 µM
[11] = second compound 0.0316 µM, first compound 3.16 µM
[12] = second compound 0.0316 µM, first compound 10 µM
[13] = second compound 0.1 µM, first compound 0.0316 µM
[14] = second compound 0.1 µM, first compound 0.1 µM
[15] = second compound 0.1 µM, first compound 0.316 µM
[16] = second compound 0.1 µM, first compound 1 µM
[17] = second compound 0.1 µM, first compound 3.16 µM
[18] = second compound 0.1 µM, first compound 10 µM
[19] = second compound 0.316 µM, first compound 0.0316 µM
[20] = second compound 0.316 µM, first compound 0.1 µM
[21] = second compound 0.316 µM, first compound 0.316 µM
[22] = second compound 0.316 µM, first compound 1 µM
[23] = second compound 0.316 µM, first compound 3.16 µM
[24] = second compound 0.316 µM, first compound 10 µM
[25] = second compound 1 µM, first compound 0.0316 µM
[26] = second compound 1 µM, first compound 0.1 µM
[27] = second compound 1 µM, first compound 0.316 µM
[28] = second compound 1 µM, first compound 1 µM
[29] = second compound 1 µM, first compound 3.16 µM
[30] = second compound 1 µM, first compound 10 µM
[31] = second compound 3.16 µM, first compound 0.0316 µM
[32] = second compound 3.16 µM, first compound 0.1 µM
[33] = second compound 3.16 µM, first compound 0.316 µM
[34] = second compound 3.16 µM, first compound 1 µM
[35] = second compound 3.16 µM, first compound 3.16 µM
[36] = second compound 3.16 µM, first compound 10 µM
[37] = second compound 10 µM, first compound 0.0316 µM
[38] = second compound 10 µM, first compound 0.1 µM
[39] = second compound 10 µM, first compound 0.316 µM
[40] = second compound 10 µM, first compound 1 µM
[41] = second compound 10 µM, first compound 3.16 µM
[42] = second compound 10 µM, first compound 10 µM
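Further: spheroids exposed to agents for seven days before readout.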
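Wherever viability, T/C is given: 100% = DMSO vehicle control viability.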

IC50 [1]: 269 nM
IC50 [2]: 31.7 nM
IC50 [3]: < 31.6 nM
IC50 [4]: < 31.6 nM
IC50 [5]: < 31.6 nM
IC50 [6]: < 31.6 nM
Compound: CC(Nc1ccc2c(c1)OCCn1cc(N3C(=O)OCC3C(F)F)nc1-2)C(N)=O (centres undefined) + CNC(=O)c1ccc(Nc2nc(OC3CCCC3)c3c(-c4ccc5nc(C)oc5c4)c[nH]c3n2)c(OC)c1
viability, T/C [7]: 67.3%
viability, T/C [8]: 61.1%
viability, T/C [9]: 48.2%
viability, T/C [10]: 34.2%
viability, T/C [11]: 41.8%
viability, T/C [12]: 26.5%
viability, T/C [13]: 55.7%
viability, T/C [14]: 38.5%
viability, T/C [15]: 31.9%
viability, T/C [16]: 40.5%
viability, T/C [17]: 38.2%
viability, T/C [18]: 17.7%
viability, T/C [19]: 41%
viability, T/C [20]: 44.8%
viability, T/C [21]: 36.5%
viability, T/C [22]: 43.1%
viability, T/C [23]: 32.3%
viability, T/C [24]: 16.9%
viability, T/C [25]: 39.5%
viability, T/C [26]: 32.6%
viability, T/C [27]: 29.6%
viability, T/C [28]: 27.5%
viability, T/C [29]: 23.4%
viability, T/C [30]: 13.5%
viability, T/C [31]: 37.1%
viability, T/C [32]: 31.7%
viability, T/C [33]: 26.8%
viability, T/C [34]: 22.2%
viability, T/C [35]: 20.8%
viability, T/C [36]: 16.3%
viability, T/C [37]: 34.7%
viability, T/C [38]: 28.2%
viability, T/C [39]: 26.5%
viability, T/C [40]: 25.9%
viability, T/C [41]: 23.2%
viability, T/C [42]: 13.2%

Compound: C#Cc1c(F)ccc2cc(O)cc(-c3ncc4c(N5CC6CCC(C5)N6)nc(OCC56CCCN5CC(F)C6)nc4c3F)c12 (centres undefined) + CN1CCN(c2cc(C(=O)Nc3cc4cc(-c5cnn(C)c5)ccc4cn3)ccn2)CC1
IC50 [1]: > 10000 nM
IC50 [2]: > 10000 nM
IC50 [3]: < 31.6 nM
IC50 [4]: < 31.6 nM
IC50 [5]: < 31.6 nM
IC50 [6]: < 31.6 nM
viability, T/C [7]: 80.5%
viability, T/C [8]: 100%
viability, T/C [9]: 88.8%
viability, T/C [10]: 92.9%
viability, T/C [11]: 84.8%
viability, T/C [12]: 96%
viability, T/C [13]: 56.6%
viability, T/C [14]: 61.1%
viability, T/C [15]: 64.8%
viability, T/C [16]: 63.3%
viability, T/C [17]: 57.1%
viability, T/C [18]: 44.9%
viability, T/C [19]: 32.3%
viability, T/C [20]: 33.5%
viability, T/C [21]: 34.9%
viability, T/C [22]: 42.4%
viability, T/C [23]: 37.6%
viability, T/C [24]: 29.9%
viability, T/C [25]: 7.93%
viability, T/C [26]: 5.94%
viability, T/C [27]: 7.93%
viability, T/C [28]: 8.03%
viability, T/C [29]: 5.77%
viability, T/C [30]: 5.01%
viability, T/C [31]: 9.44%
viability, T/C [32]: 7.11%
viability, T/C [33]: 5.82%
viability, T/C [34]: 5.27%
viability, T/C [35]: 5.66%
viability, T/C [36]: 7.7%
viability, T/C [37]: 5.72%
viability, T/C [38]: 3.17%
viability, T/C [39]: 2.28%
viability, T/C [40]: 4.25%
viability, T/C [41]: 5.23%
viability, T/C [42]: 1%

IC50 (curve of compound): > 1000 nM
Compound: CCN1CCN(Cc2ccc(Nc3ncc(F)c(-c4cc(F)c5nc(C)n(C(C)C)c5c4)n3)nc2)CC1
viability, T/C (compound 0.00316 µM): 86.6% and 89.6%
viability, T/C (compound 0.01 µM): 81.3% and 70%
viability, T/C (compound 0.0316 µM): 73.7% and 72.2%
viability, T/C (compound 0.1 µM): 70.1% and 68.2%
viability, T/C (compound 0.316 µM): 105% and 79.5%
viability, T/C (compound 1 µM): 182% and 142%

IC50 [1]: > 10000 nM
IC50 [2]: > 10000 nM
IC50 [3]: 1980 nM
IC50 [4]: < 31.6 nM
IC50 [5]: < 31.6 nM
IC50 [6]: 31.6 nM
Compound: O=C(c1cc(Cc2n[nH]c(=O)c3ccccc23)ccc1F)N1CCN(C(=O)C2CC2)CC1 + CNC(=O)c1ccc(Nc2nc(OC3CCCC3)c3c(-c4ccc5nc(C)oc5c4)c[nH]c3n2)c(OC)c1
viability, T/C [7]: 99.7%
viability, T/C [8]: 105%
viability, T/C [9]: 102%
viability, T/C [10]: 81.9%
viability, T/C [11]: 103%
viability, T/C [12]: 61.7%
viability, T/C [13]: 63.2%
viability, T/C [14]: 60%
viability, T/C [15]: 60.7%
viability, T/C [16]: 59.6%
viability, T/C [17]: 62.8%
viability, T/C [18]: 41.7%
viability, T/C [19]: 50.8%
viability, T/C [20]: 55.5%
viability, T/C [21]: 56.6%
viability, T/C [22]: 51.9%
viability, T/C [23]: 47.5%
viability, T/C [24]: 39.7%
viability, T/C [25]: 39.8%
viability, T/C [26]: 49.3%
viability, T/C [27]: 47.5%
viability, T/C [28]: 47%
viability, T/C [29]: 45.2%
viability, T/C [30]: 33.2%
viability, T/C [31]: 43.7%
viability, T/C [32]: 44.4%
viability, T/C [33]: 41.8%
viability, T/C [34]: 41.2%
viability, T/C [35]: 42.5%
viability, T/C [36]: 31.5%
viability, T/C [37]: 46.6%
viability, T/C [38]: 41.8%
viability, T/C [39]: 49.3%
viability, T/C [40]: 39.1%
viability, T/C [41]: 56.1%
viability, T/C [42]: 26.5%

IC50 (curve of compound): 279 nM and 217 nM
Compound: CC(Nc1ccc2c(c1)OCCn1cc(N3C(=O)OCC3C(F)F)nc1-2)C(N)=O (centres undefined)
viability, T/C (compound 0.0316 µM): 66.2% and 56.2%
viability, T/C (compound 0.1 µM): 68.1% and 60.1%
viability, T/C (compound 0.316 µM): 39.3% and 46.8%
viability, T/C (compound 1 µM): 40.2% and 37.5%
viability, T/C (compound 3.16 µM): 32% and 39.5%
viability, T/C (compound 10 µM): 18.5% and 29.7%

IC50 [1]: > 10000 nM
IC50 [2]: > 10000 nM
IC50 [3]: > 10000 nM
IC50 [4]: < 31.6 nM
IC50 [5]: < 31.6 nM
IC50 [6]: < 31.6 nM
Compound: CCCS(=O)(=O)Nc1ccc(F)c(C(=O)c2c[nH]c3ncc(-c4ccc(Cl)cc4)cc23)c1F + CNC(=O)c1ccc(Nc2nc(OC3CCCC3)c3c(-c4ccc5nc(C)oc5c4)c[nH]c3n2)c(OC)c1
viability, T/C [7]: 85.7%
viability, T/C [8]: 86.2%
viability, T/C [9]: 72.4%
viability, T/C [10]: 90.2%
viability, T/C [11]: 91%
viability, T/C [12]: 73.5%
viability, T/C [13]: 58%
viability, T/C [14]: 63.7%
viability, T/C [15]: 54%
viability, T/C [16]: 57.4%
viability, T/C [17]: 62%
viability, T/C [18]: 68.4%
viability, T/C [19]: 51.7%
viability, T/C [20]: 49.9%
viability, T/C [21]: 49.7%
viability, T/C [22]: 64.8%
viability, T/C [23]: 49.6%
viability, T/C [24]: 56%
viability, T/C [25]: 48%
viability, T/C [26]: 42.3%
viability, T/C [27]: 43.4%
viability, T/C [28]: 45.7%
viability, T/C [29]: 52.3%
viability, T/C [30]: 50.9%
viability, T/C [31]: 43.9%
viability, T/C [32]: 42.1%
viability, T/C [33]: 46.1%
viability, T/C [34]: 44.2%
viability, T/C [35]: 53%
viability, T/C [36]: 45.7%
viability, T/C [37]: 39.7%
viability, T/C [38]: 39.1%
viability, T/C [39]: 40.8%
viability, T/C [40]: 34.7%
viability, T/C [41]: 50.4%
viability, T/C [42]: 51.1%

Compound: CC1(C)CCC(CN2CCN(c3ccc(C(=O)NS(=O)(=O)c4ccc(NCC5CCOCC5)c([N+](=O)[O-])c4)c(Oc4cnc5[nH]ccc5c4)c3)CC2)=C(c2ccc(Cl)cc2)C1 + CN1CCN(c2cc(C(=O)Nc3cc4cc(-c5cnn(C)c5)ccc4cn3)ccn2)CC1
IC50 [1]: > 10000 nM
IC50 [2]: > 10000 nM
IC50 [3]: < 31.6 nM
IC50 [4]: < 31.6 nM
IC50 [5]: < 31.6 nM
IC50 [6]: < 31.6 nM
viability, T/C [7]: 94%
viability, T/C [8]: 105%
viability, T/C [9]: 103%
viability, T/C [10]: 96%
viability, T/C [11]: 97%
viability, T/C [12]: 85.6%
viability, T/C [13]: 70.8%
viability, T/C [14]: 63.6%
viability, T/C [15]: 78.5%
viability, T/C [16]: 67.7%
viability, T/C [17]: 71.1%
viability, T/C [18]: 69.5%
viability, T/C [19]: 36.1%
viability, T/C [20]: 29.7%
viability, T/C [21]: 41.3%
viability, T/C [22]: 36%
viability, T/C [23]: 28.4%
viability, T/C [24]: 22.4%
viability, T/C [25]: 10.8%
viability, T/C [26]: 13.3%
viability, T/C [27]: 5.93%
viability, T/C [28]: 9.88%
viability, T/C [29]: 10.1%
viability, T/C [30]: 3.58%
viability, T/C [31]: 8.81%
viability, T/C [32]: 8.56%
viability, T/C [33]: 6.4%
viability, T/C [34]: 7.84%
viability, T/C [35]: 8.73%
viability, T/C [36]: 3.29%
viability, T/C [37]: 7.98%
viability, T/C [38]: 2.99%
viability, T/C [39]: 4.03%
viability, T/C [40]: 8.3%
viability, T/C [41]: 3.6%
viability, T/C [42]: 0.85%
